Laboratory results from ChEMBL document CHEMBL1146499, “New compounds from an extract of Vernonia colorata leaves with anti-inflammatory activity” (2004).
The source made the active and inactive calls. The rule behind the calls is not given here.

Key:
Rattus norvegicus [1] = test: Antiinflammatory activity against carrageenan-induced paw edema in Wistar rat at 1.3 mg/kg, po; format: functional, organism-based; set-up: dose 1.3 mg/kg
Rattus norvegicus [2] = test: Antiinflammatory activity against carrageenan-induced paw edema in Wistar rat at 1.8 mg/kg, po; format: functional, organism-based; set-up: dose 1.8 mg/kg
Rattus norvegicus [3] = test: Antiinflammatory activity against carrageenan-induced paw edema in Wistar rat at 1.7 mg/kg, po; format: functional, organism-based; set-up: dose 1.7 mg/kg
Rattus norvegicus [4] = test: Antiinflammatory activity against carrageenan-induced paw edema in Wistar rat at 5 mg/kg, po; format: functional
Rattus norvegicus [5] = test: Antiinflammatory activity against carrageenan-induced paw edema in Wistar rat at 1.08 mg/kg, po; format: functional, organism-based; set-up: dose 1.08 mg/kg

For `C[C@@]12CCC[C@H]1C1=C(CC2)[C@@]2(C)CC[C@H](O[C@@H]3O[C@H](CO[C@@H]4O[C@H](CO)[C@@H](O)[C@H](O)[C@H]4O)[C@@H](O)[C@H](O)[C@H]3O)CC2CC1` (stereo not given in full), the Activity (Rattus norvegicus [1]) was “inactive”.
`C[C@@]12CCC[C@H]1C1=C(CC2)[C@@]2(C)CC[C@H](O[C@@H]3O[C@H](CO[C@@H]4O[C@H](CO)[C@@H](O)[C@H](O)[C@H]4O)[C@@H](O)[C@H](O)[C@H]3O[C@@H]3O[C@H](CO)[C@H](O)[C@H](O)[C@H]3O)CC2CC1` (stereo not given in full) was tested, and the Activity (Rattus norvegicus [2]) was “inactive”.
In the case of `CC(=O)OC[C@H]1O[C@@H](O[C@H]2CC[C@]3(C)C4=C(CCC3C2)C2=CCC[C@@]2(C2[C@H]3O[C@]5(C)OC[C@H](C)C5(O)[C@H]3O[C@@H]2O)CC4)[C@H](O[C@@H]2O[C@H](CO)[C@H](O)[C@H](O)[C@H]2O)[C@@H](O)[C@@H]1O` (stereo not given in full), the Activity (Rattus norvegicus [3]) is reported as “inactive”.
Work on `COc1ccc2c(c1)c(CC(=O)O)c(C)n2C(=O)c1ccc(Cl)cc1` [INDOMETHACIN] yielded an inhibition in vivo at 5 mg/kg (Rattus norvegicus [4]) of 85%.
`C[C@H]1CO[C@@]2(C)O[C@@H]3C([C@@]45CCC=C4C4=C(CC5)[C@@]5(C)CC[C@H](O[C@@H]6O[C@H](CO)[C@@H](O)[C@H](O)[C@H]6O[C@@H]6O[C@H](CO)[C@H](O)[C@H](O)[C@H]6O)CC5CC4)[C@@H](O)O[C@@H]3C12O` (stereo not given in full) was tested, and the Activity (Rattus norvegicus [5]) was “inactive”.
